Measurements from US10183943B2, “Heterocyclic compounds and their use in preventing or treating bacterial infections” (MUTABILIS, priority 2015, dated 2019).
Like-named read-outs stand apart in the source and are kept apart here.

Assays:
TEM-1 = target: T1, TEM-1 (Escherichia coli, UniProt P62593); experiment: β-lactamase inhibitory activity, determination of IC50 (nitrocefin hydrolysis); type: biochemical
T1 construct: made in house; host or cells: E. coli

SHV-1 = target: T2, SHV-1 (Klebsiella pneumoniae, UniProt P0AD64); experiment: as above; type: biochemical
T2 construct: made in house; host or cells: E. coli

CTX-M-15 = target: T3, CTX-M-15 (Escherichia coli, UniProt Q9EXV5); experiment: as above; type: biochemical
T3 construct: made in house; host or cells: E. coli

KPC-2 = target: T4, KPC-2 (Klebsiella pneumoniae, UniProt Q9F663); experiment: as above; type: biochemical
T4 construct: made in house; host or cells: E. coli

OXA-1 = target: T5, OXA-1 (Escherichia coli, UniProt P13661); experiment: as above; type: biochemical
T5 construct: made in house; host or cells: E. coli

OXA-11 = target: T6, OXA-11 (Pseudomonas aeruginosa, UniProt Q06778); experiment: as above; type: biochemical
T6 construct: made in house; host or cells: E. coli

OXA-15 = target: T7, OXA-15 (Pseudomonas aeruginosa, UniProt Q51574); experiment: biochemical
T7 construct: made in house; host or cells: E. coli

OXA-48 = target: T8, OXA-48 (Klebsiella pneumoniae, UniProt Q6XEC0); experiment: β-lactamase inhibitory activity, determination of IC50 (nitrocefin hydrolysis); type: biochemical
T8 construct: made in house; host or cells: E. coli

[1] = tested on: E. cloacae 260508 (TEM-1, CTX-M-15); experiment: MIC of compounds alone, broth microdilution; type: cell-based; settings: Enterobacter cloacae, read-out: MIC compounds of the invention alone
Method in brief: (§1)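 Read-out: lowest compound concentration with no growth by visual inspection. CLSI M7-A7 broth microdilution, cation-adjusted Mueller-Hinton broth, inoculum 5×10^5 cfu/mL from log-phase culture, 16-20 h, 35° C, ambient air; compound tested without β-lactam.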

E. cloacae P99 (AmpC) = experiment: MIC of compounds alone, broth microdilution; type: cell-based; settings: Enterobacter cloacae, read-out: MIC compounds of the invention alone
Method in brief: as §1

[2] = tested on: E. cloacae UFR51 (SHV-12, IMP-8); experiment: MIC of compounds alone, broth microdilution; type: cell-based; settings: Enterobacter cloacae, read-out: MIC compounds of the invention alone
Method in brief: as §1

[3] = tested on: E. cloacae UFR70 (TEM-1, CTX-M-15, CMY-2, OXA-1, Porin loss); experiment: MIC of compounds alone, broth microdilution; type: cell-based; settings: Enterobacter cloacae, read-out: MIC compounds of the invention alone
Method in brief: as §1

[4] = tested on: E. cloacae UFR85 (TEM-1, CTX-M-15, AmpC); experiment: MIC of compounds alone, broth microdilution; type: cell-based; settings: Enterobacter cloacae, read-out: MIC compounds of the invention alone
Method in brief: as §1

[5] = tested on: E. coli 131119 (TEM-1, OXA-48); experiment: MIC of compounds alone, broth microdilution; type: cell-based; settings: Escherichia coli, read-out: MIC compounds of the invention alone
Method in brief: as §1

[6] = tested on: E. coli 190317 (TEM-1, SHV-12, CTX-M-15, OXA-1); experiment: MIC of compounds alone, broth microdilution; type: cell-based; settings: Escherichia coli, read-out: MIC compounds of the invention alone
Method in brief: as §1

E. coli RGN238 (OXA-1) = experiment: MIC of compounds alone, broth microdilution; type: cell-based; settings: Escherichia coli, read-out: MIC compounds of the invention alone
Method in brief: as §1

[7] = tested on: E. coli UFR18 (CTX-M-15, OXA-204); experiment: MIC of compounds alone, broth microdilution; type: cell-based; settings: Escherichia coli, read-out: MIC compounds of the invention alone
Method in brief: as §1

[8] = tested on: E. coli UFR32 (TEM-1, VEB-1, OXA-10); experiment: MIC of compounds alone, broth microdilution; type: cell-based; settings: Escherichia coli, read-out: MIC compounds of the invention alone
Method in brief: as §1

[9] = tested on: E. coli UFR41 (TEM-1, CTX-M-15, CMY-2, OXA-1, NDM-4); experiment: MIC of compounds alone, broth microdilution; type: cell-based; settings: Escherichia coli, read-out: MIC compounds of the invention alone
Method in brief: as §1

[10] = tested on: E. coli UFR61O (TEM-1, KPC-2); experiment: MIC of compounds alone, broth microdilution; type: cell-based; settings: Escherichia coli, read-out: MIC compounds of the invention alone
Method in brief: as §1

[11] = tested on: E. coli UFR74 (SHV-1, DHA-1); experiment: MIC of compounds alone, broth microdilution; type: cell-based; settings: Escherichia coli, read-out: MIC compounds of the invention alone
Method in brief: as §1

[12] = tested on: K. oxytoca UFR21 (TEM-1, CTX-M-15, OXA-48); experiment: MIC of compounds alone, broth microdilution; type: cell-based; settings: Klebsiella oxytoca, read-out: MIC compounds of the invention alone
Method in brief: as §1

[13] = tested on: K. pneumoniae 160143 (TEM-1, SHV-1, CTX-M-15, KPC-2, OXA-1); experiment: MIC of compounds alone, broth microdilution; type: cell-based; settings: Klebsiella pneumoniae, read-out: MIC compounds of the invention alone
Method in brief: as §1

[14] = tested on: K. pneumoniae 200047 (TEM-1, SHV-32, CTX-M-15, OXA-1); experiment: MIC of compounds alone, broth microdilution; type: cell-based; settings: Klebsiella pneumoniae, read-out: MIC compounds of the invention alone
Method in brief: as §1

[15] = tested on: K. pneumoniae 6299 (TEM-1, SHV-11, OXA-163); experiment: MIC of compounds alone, broth microdilution; type: cell-based; settings: Klebsiella pneumoniae, read-out: MIC compounds of the invention alone
Method in brief: as §1

[16] = tested on: K. pneumoniae BAA-1898 (TEM-1, SHV-11, SHV-12, KPC-2); experiment: MIC of compounds alone, broth microdilution; type: cell-based; settings: Klebsiella pneumoniae
Method in brief: as §1

[17] = tested on: K. pneumoniae UFR24 (TEM-1, SHV-2, SHV-11, OXA-1, OXA-48, OXA-47); experiment: MIC of compounds alone, broth microdilution; type: cell-based; settings: Klebsiella pneumoniae, read-out: MIC compounds of the invention alone
Method in brief: as §1

[18] = tested on: K. pneumoniae UFR39 (CTX-M-15, NDM-1); experiment: MIC of compounds alone, broth microdilution; type: cell-based; settings: Klebsiella pneumoniae, read-out: MIC compounds of the invention alone
Method in brief: as §1

[19] = tested on: K. pneumoniae UFR68 (TEM-1, SHV-11, CTX-M-15, KPC-3); experiment: MIC of compounds alone, broth microdilution; type: cell-based; settings: Klebsiella pneumoniae, read-out: MIC compounds of the invention alone
Method in brief: as §1

[20] = tested on: K. pneumoniae UFR77 (CMY-2); experiment: MIC of compounds alone, broth microdilution; type: cell-based; settings: Klebsiella pneumoniae, read-out: MIC compounds of the invention alone
Method in brief: as §1

[21] = tested on: P. aeruginosa CIP107051 (TEM-24); experiment: MIC of compounds alone, broth microdilution; type: cell-based; settings: Pseudomonas aeruginosa
Method in brief: as §1

AmpC (P99) = AmpC (P99) (Enterobacter cloacae, UniProt P05364); experiment: β-lactamase inhibitory activity, determination of IC50 (nitrocefin hydrolysis)
AmpC P. aeruginosa = AmpC P. aeruginosa (Pseudomonas aeruginosa, UniProt P24735); experiment: as above
[22] = tested on: E. cloacae UFR51 (SHV-12, IMP-8); experiment: MIC of ceftazidime (CAZ) in combination with compounds at 4 μg/mL, broth microdilution; type: cell-based; settings: strain UFR51; MIC of CAZ with compound fixed at 4 μg/mL
Method: Method 2: MIC of Compounds and Synergy with Ceftazidime Against Bacterial Isolates (Table 2 and 3)
Compounds of the present invention were assessed against genotyped bacterial strains alone or in combination with the β-lactam ceftazidime (CAZ). In the assays, MICs of said compounds, or of ceftazidime at fixed concentrations of said compounds were determined by the broth microdilution method according to the Clinical Laboratory Standards Institute (CLSI-M7-A7). Briefly, compounds alone according to the invention were prepared in DMSO and spotted (2 μL each) on sterile polystyrene plates (Corning, 3788). Compounds and ceftazidime dilutions were prepared in DMSO and spotted (1 μL each) on sterile polystyrene plates (Corning, 3788). Log phase bacterial suspensions were adjusted to a final density of 5×10^5 cfu/mL in cation-adjusted Mueller-Hinton broth (Becton-Dickinson) and added to each well (98 μL). Microplates were incubated for 16-20 h at 35° C. in ambient air. The MIC of the compounds was defined as the lowest concentration of said compounds that prevented bacterial growth as read by visual inspection. The MIC of ceftazidime at each compound concentration was defined as the lowest concentration of ceftazidime that prevented bacterial growth as read by visual inspection.

T2 sequence (P0AD64 22-286): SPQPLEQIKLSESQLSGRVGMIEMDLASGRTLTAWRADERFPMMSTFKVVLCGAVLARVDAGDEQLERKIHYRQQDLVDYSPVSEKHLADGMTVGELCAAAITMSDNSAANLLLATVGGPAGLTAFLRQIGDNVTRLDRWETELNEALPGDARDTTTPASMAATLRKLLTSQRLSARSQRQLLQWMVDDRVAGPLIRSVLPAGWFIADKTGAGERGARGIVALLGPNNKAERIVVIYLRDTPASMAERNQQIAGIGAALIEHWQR
Chain of AmpC (P99) (P05364 21-381): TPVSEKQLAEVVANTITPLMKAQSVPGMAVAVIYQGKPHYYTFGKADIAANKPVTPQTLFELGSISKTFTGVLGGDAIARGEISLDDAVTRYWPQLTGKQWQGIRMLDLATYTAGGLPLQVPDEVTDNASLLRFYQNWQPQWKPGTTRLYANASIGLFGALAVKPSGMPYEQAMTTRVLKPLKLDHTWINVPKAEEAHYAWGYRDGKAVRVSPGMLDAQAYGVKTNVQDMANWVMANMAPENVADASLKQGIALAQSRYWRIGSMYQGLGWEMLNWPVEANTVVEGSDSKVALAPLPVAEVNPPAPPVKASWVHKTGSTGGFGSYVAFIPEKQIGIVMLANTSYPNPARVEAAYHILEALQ
T4 sequence (Q9F663 25-293 limits assumed): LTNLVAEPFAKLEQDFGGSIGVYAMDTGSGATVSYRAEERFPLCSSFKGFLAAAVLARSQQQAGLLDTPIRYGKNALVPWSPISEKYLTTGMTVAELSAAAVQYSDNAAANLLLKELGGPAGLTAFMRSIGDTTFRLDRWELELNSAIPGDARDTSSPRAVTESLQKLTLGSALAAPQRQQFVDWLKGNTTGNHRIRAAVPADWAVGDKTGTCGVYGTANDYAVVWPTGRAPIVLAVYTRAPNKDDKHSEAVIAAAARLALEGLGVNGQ
T5 sequence (P13661 26-276): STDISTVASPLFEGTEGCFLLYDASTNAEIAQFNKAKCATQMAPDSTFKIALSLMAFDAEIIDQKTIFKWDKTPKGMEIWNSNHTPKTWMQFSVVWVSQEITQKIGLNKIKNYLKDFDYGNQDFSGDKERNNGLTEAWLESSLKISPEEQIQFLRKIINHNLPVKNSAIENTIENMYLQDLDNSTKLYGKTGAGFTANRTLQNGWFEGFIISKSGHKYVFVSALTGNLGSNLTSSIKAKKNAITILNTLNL
T6 sequence (Q06778 21-266): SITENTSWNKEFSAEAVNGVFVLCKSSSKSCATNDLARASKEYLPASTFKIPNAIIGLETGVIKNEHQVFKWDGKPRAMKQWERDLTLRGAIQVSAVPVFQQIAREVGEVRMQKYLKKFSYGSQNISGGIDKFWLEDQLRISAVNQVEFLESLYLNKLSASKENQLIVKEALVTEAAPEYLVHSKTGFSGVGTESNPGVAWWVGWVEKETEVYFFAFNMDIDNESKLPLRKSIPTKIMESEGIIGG
T7 sequence (Q51574 22-275): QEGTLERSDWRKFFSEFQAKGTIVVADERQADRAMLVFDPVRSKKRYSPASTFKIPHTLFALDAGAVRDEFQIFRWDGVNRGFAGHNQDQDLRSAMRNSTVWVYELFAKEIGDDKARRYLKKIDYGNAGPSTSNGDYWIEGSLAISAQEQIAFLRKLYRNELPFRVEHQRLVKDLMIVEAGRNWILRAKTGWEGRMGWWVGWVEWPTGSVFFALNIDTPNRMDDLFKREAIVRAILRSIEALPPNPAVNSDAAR
T8 sequence (Q6XEC0 23-265 limits assumed): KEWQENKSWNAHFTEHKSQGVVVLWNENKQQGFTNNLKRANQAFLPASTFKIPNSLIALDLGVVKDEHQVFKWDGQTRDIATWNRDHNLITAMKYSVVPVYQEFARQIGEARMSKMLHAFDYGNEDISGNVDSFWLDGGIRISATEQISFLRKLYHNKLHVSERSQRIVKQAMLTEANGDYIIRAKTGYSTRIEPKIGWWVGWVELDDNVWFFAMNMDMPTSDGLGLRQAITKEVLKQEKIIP
Chain of AmpC P. aeruginosa (P24735 27-397): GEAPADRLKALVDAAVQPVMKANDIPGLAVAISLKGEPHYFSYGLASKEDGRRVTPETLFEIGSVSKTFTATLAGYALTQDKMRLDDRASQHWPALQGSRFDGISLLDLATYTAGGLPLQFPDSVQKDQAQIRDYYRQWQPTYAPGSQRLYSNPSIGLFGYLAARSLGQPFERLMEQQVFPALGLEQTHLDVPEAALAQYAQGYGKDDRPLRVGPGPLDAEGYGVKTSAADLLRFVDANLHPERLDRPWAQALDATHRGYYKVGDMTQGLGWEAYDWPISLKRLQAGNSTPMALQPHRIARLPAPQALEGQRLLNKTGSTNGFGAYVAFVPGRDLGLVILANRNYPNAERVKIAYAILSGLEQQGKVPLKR
T1 sequence (P62593 24-286 limits assumed): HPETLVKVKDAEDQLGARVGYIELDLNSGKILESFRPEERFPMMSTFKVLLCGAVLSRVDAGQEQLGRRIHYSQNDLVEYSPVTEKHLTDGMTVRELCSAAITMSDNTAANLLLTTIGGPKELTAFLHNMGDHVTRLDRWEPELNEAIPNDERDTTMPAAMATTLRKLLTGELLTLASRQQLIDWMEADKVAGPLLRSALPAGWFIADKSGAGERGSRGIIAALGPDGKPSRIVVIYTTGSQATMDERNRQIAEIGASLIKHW
T3 sequence (Q9EXV5 entry or part of it): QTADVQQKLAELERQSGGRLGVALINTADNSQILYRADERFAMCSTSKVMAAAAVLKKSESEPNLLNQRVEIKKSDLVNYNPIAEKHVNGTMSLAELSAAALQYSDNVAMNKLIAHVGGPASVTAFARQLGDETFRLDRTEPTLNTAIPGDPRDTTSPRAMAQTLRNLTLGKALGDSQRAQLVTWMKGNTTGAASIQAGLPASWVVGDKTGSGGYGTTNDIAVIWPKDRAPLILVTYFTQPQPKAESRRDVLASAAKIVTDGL

Work on `O=C1N2CC=C(c3cnoc3)C(C2)N1OC(F)(F)C(=O)[O-].[Li+]` (stereo not drawn) [Example 6, Lithium difluoro-(4-isoxazol-4-yl-7-oxo-1,6-diaza-bicyclo[3.2.1]oct-3-en-6-yloxy)-acetate] yielded an IC50 (TEM-1) of 7.3 nM, an IC50 (SHV-1) of 18 nM and an IC50 (CTX-M-15) of 1.7 nM. For the same compound, the IC50 (KPC-2) was 460 nM, the IC50 (OXA-1) was 1700 nM and the IC50 (OXA-11) was 180 nM. For the same compound, the IC50 (OXA-15) was 28 nM, the IC50 (OXA-48) was 3.7 nM and the MIC [1] was 4 µg/mL. The MIC (E. cloacae P99 (AmpC)) was 4 µg/mL, the MIC [2] was 2 µg/mL and the MIC [3] was 16 µg/mL. The MIC [4] was > 32 µg/mL, the MIC [5] was 4 µg/mL and the MIC [6] was 2 µg/mL. It also gave an MIC (E. coli RGN238 (OXA-1)) of 16 µg/mL, an MIC [7] of 2 µg/mL and an MIC [8] of 2 µg/mL. The MIC [9] was > 32 µg/mL, the MIC [10] was 8 µg/mL and the MIC [11] was > 32 µg/mL. For the same compound, the MIC [12] was > 32 µg/mL, the MIC [13] was > 32 µg/mL and the MIC [14] was 32 µg/mL. For the same compound, the MIC [15] was > 32 µg/mL, the MIC ([16]; BAA1898, read-out: MIC compounds of the invention alone) was > 32 µg/mL and the MIC [17] was > 32 µg/mL. For the same compound, the MIC [18] was 4 µg/mL, the MIC [19] was > 32 µg/mL and the MIC [20] was > 32 µg/mL. For the same compound, the MIC ([21]; CIP107051, read-out: MIC compounds of the invention alone) was > 32 µg/mL, the IC50 (AmpC (P99)) was 1800 nM and the IC50 (AmpC P. aeruginosa) was 4200 nM.
`O=C1N2CC(c3ccncc3)=CC(C2)N1OS(=O)(=O)[O-].[Na+]` (stereo not drawn) [Example 33, Sodium [3-(4-pyridyl)-7-oxo-1,6-diazabicyclo[3.2.1]oct-3-en-6-yl]sulfate] gave an IC50 (TEM-1) of 1 nM, an IC50 (SHV-1) of 2.3 nM and an IC50 (CTX-M-15; class (A), nitrocefin 200 μM, 30 min pre-incubation, read-out: IC50 β-lactamase CTX-M-15) of 0.79 nM. It also gave an IC50 (KPC-2; class (A), nitrocefin 200 μM, 30 min pre-incubation, read-out: IC50 β-lactamase KPC-2) of 9 nM, an IC50 (OXA-1; class (D), nitrocefin 200 μM, 30 min pre-incubation, read-out: IC50 β-lactamase OXA-1) of 690 nM and an IC50 (OXA-11) of 210 nM. It also gave an IC50 (OXA-15) of 110 nM, an IC50 (OXA-48; class (D), nitrocefin 200 μM, 30 min pre-incubation, read-out: IC50 β-lactamase OXA-48) of 12 nM and an MIC (E. cloacae P99 (AmpC); strain P99 (E. cloacae)) of 8 µg/mL. The MIC ([2]; strain UFR51 (E. cloacae)) was 16 µg/mL, the MIC [3] was 4 µg/mL and the MIC ([5]; strain 131119 (E. coli)) was 4 µg/mL. For the same compound, the MIC [6] was 4 µg/mL, the MIC (E. coli RGN238 (OXA-1); strain RGN238 (E. coli)) was 4 µg/mL and the MIC ([7]; strain UFR18 (E. coli)) was 4 µg/mL. It also gave an MIC ([8]; strain UFR32 (E. coli)) of 8 µg/mL, an MIC ([10]; strain UFR61O (E. coli)) of 16 µg/mL and an MIC ([11]; strain UFR74 (E. coli)) of 8 µg/mL. The MIC [12] was 32 µg/mL, the MIC [13] was 8 µg/mL and the MIC [14] was 8 µg/mL. For the same compound, the MIC ([15]; strain 6299 (K. pneumoniae)) was 16 µg/mL, the MIC ([16]; BAA1898, strain BAA-1898 (K. pneumoniae), read-out: MIC compounds of the invention alone) was 8 µg/mL and the MIC ([17]; strain UFR24 (K. pneumoniae)) was 32 µg/mL. The MIC ([18]; strain UFR39 (K. pneumoniae)) was 16 µg/mL, the MIC ([20]; strain UFR77 (K. pneumoniae)) was 16 µg/mL and the MIC ([21]; strain CIP107051 (P. aeruginosa), read-out: MIC compounds of the invention alone) was > 32 µg/mL. For the same compound, the “MIC combination of CAZ and compounds of the invention at 4 μg/mL” value [22] was >128 µg/mL, the IC50 (AmpC (P99)) was 31 nM and the IC50 (AmpC P. aeruginosa) was 90 nM.
